Laboratory results taken from patent publication US20220003751A1, “METHOD FOR […] OF COLCHICINE-I[…]” (ASSISTANCE PUBLIQUE - HÔPITAUX DE PARIS, priority 2019, published 2022).

Key:
[1] = mortality rate by supposed ingested dose in colchicine overdose; type: in vivo, human
Procedure: Although the dose ingested has an influence on the clinical picture, it is not, by itself, enough to allow prediction of the death of the patient. Indeed, the mortality rate in the three groups of supposed ingested dose equal to or less than 0.35 mg/kg, >0.35—equal or less than 0.7, and >0.7 were 0 (0%), 6/33 (18%), and 12/36 (33%) (Fisher's exact test: p<0.0001). The relation of mortality rate to the dose is statistically highly significant albeit being weak. Therefore, from a clinical viewpoint, other parameters reflecting the effects of the dose should be considered to define the likelihood of death in colchicine overdose.

[2] = cited from earlier work

Question: For `COc1cc2c(c(OC)c1OC)-c1ccc(OC)c(=O)cc1[C@@H](NC(C)=O)CC2` [colchicine, Colchicine], which mortality rate ([1]; supposed ingested dose >0.7 mg/kg, 12/36) is on record?
Answer: 33%

Question: And the mortality rate ([1]; supposed ingested dose >0.35 to equal or less than 0.7 mg/kg, 6/33)?
Answer: 18%

Question: What about the mortality rate ([1]; supposed ingested dose equal to or less than 0.35 mg/kg) of the same molecule?
Answer: 0%

Question: What about the “acute dose presumed to be fatal” value [2] of the same molecule?
Answer: about 0.8 mg/kg
